Results taken from patent US9850247B2 (Almac Discovery Limited, priority 2013, dated 2017).

How the values were obtained:
Wee-1 kinase = molecular target: T1, Wee-1 kinase (Homo sapiens, UniProt P30291); experiment: Measurement of Wee-1 kinase activity (ADP-Glo luminescent kit); assay type: biochemical
T1 construct: purchased Invitrogen PV3817
Method: Method 1: Measurement of Wee-1 Kinase Activity
In the measurement of Wee-1 activity, a commercial peptide Poly(Lys Tyr (4:1)) hydrobromide was purchased from Sigma Aldrich and used as the substrate. Activated Wee-1 kinase was purchased from Invitrogen (PV3817) and an ADP-Glo luminescent kit was purchased from Promega.
All reactions took place in […] volumes in reaction buffer containing 40 mM Tris-HCl and 20 mM magnesium chloride, supplemented with 0.1 mg/mL bovine serum albumin and 2 mM DTT. Compounds were serially diluted in buffer and 5 μL of each concentration pipetted into a white 384 well plate (Sigma Aldrich M6186). A 5 μL aliquot of the Wee-1 enzyme was added to each well and the plate centrifuged for 1 min to ensure mixing of the enzyme and inhibitor.
The plate was incubated at room temperature for 30 minutes before the addition of 2.0 μg/mL of substrate and 30 μM ATP in a 5 μL aliquot. The plate was centrifuged for one minute and incubated for 1 h at RT.
15 µL of ADP-Glo stop reagent was added to each well to quench the reaction and deplete unconverted ATP. The plate was incubated for a further 40 min in the dark at RT.
30 μL of ADP-Glo kinase detection reagent was added to each well, converting ADP to ATP, catalysing the generation of luciferin by luciferase. The plate was shaken for 1 min, and incubated in the dark for an additional hour.
Luminescence from each well was detected using the Biotek Synergy4 HD plate reader and the percentage inhibition of kinase activity calculated for each inhibitor tested. Positive (kinase only) and negative (no kinase) controls were added to each plate to ensure specific interaction of kinase and inhibitor. The IC50 concentration for each inhibitor was calculated by plotting the percentage kinase inhibition against concentration of inhibitor and the curve generated by non-linear regression fitting.

[1] = CLint estimates using human liver microsomes (Method 4); assay type: in vitro ADME; conditions: pH 7.4, 1 μM compound, read-out: Mics - CLint (HLM CLint)
Method: Method 4: Determination of CLint Estimates Using Human liver microsomes Test compounds (final concentration=1 μM; final DMSO concentration=0.1%) were incubated in 0.1 M phosphate buffer pH 7.4 with human liver microsomes (0.5 mg of protein/mL) at 37° C. Reactions were started by addition of NADPH in 0.1 M phosphate buffer pH 7.4 (final concentration 1 mM). 40 μL aliquots were removed at 2, 5, 10, 15, 20, 30, 40 and 50 min. Reactions were quenched in 80 μL of ice-cold methanol. Samples were subsequently frozen overnight then centrifuged at 3500 rpm for 20 min at 4° C. The supernatants were removed and transferred into analytical plates and analysed by LC/MS/MS. LC/MS/MS Method: All samples were analysed on a Waters Acquity I-Class coupled to a Waters Xevo TQD mass spectrometer. A Waters BEH C18 2.1×50 mm 1.7 μm column was used and mobile phases were water and methanol containing 0.1% formic acid as modifier. Analysis was by multiple reaction monitoring and conditions were optimised for each test compound. Data Analyses: From a plot of 1n peak area against time, the gradient of the line is determined. Subsequently, half-life and intrinsic clearance are calculated using the following equations. [formula] [formula] [formula] where V=Incubation volume (μL)/number of cells Method 5: Determination of Kinetic Solubility (in PBS Buffer)

T1 sequence (P30291 whole entry): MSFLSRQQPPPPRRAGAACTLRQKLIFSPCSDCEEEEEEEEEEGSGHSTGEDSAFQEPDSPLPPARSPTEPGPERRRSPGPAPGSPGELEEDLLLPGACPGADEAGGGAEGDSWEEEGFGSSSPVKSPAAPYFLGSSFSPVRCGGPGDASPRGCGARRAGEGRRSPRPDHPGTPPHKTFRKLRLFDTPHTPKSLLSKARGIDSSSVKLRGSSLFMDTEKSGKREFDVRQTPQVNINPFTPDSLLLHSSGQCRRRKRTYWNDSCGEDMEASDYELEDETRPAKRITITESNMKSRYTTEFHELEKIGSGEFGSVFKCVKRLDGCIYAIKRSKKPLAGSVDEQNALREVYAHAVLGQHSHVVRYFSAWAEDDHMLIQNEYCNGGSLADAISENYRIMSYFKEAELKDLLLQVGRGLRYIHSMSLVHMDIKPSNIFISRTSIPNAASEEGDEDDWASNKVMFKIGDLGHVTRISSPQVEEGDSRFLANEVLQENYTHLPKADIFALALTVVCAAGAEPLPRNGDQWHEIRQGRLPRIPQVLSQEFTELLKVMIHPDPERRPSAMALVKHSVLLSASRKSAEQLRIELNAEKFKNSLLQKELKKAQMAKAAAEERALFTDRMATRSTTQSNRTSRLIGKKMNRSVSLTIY

SMILES | IC50 (Wee-1 kinase) [nM] | microsomal CLint at 1 μM [1] [µL/min/mg]
C[C@@H]1CN(c2ccc(Nc3ncc4c(n3)N(C)CN(c3c(Cl)cccc3Cl)C4=O)cc2)CCN1C [Example 32, (R)-3-(2,6-dichlorophenyl)-7-((4-(3,4-dimethylpiperazin-1-yl)phenyl)amino)-1-methyl-2,3-dihydropyrimido[4,5-d]pyrimidin-4(1H)-one] | 10 to 100 | 15 to 50
CN1CN(c2c(Cl)cccc2Cl)C(=O)c2cnc(Nc3ccc(N4CCN(C)[C@@H](CO)C4)cc3)nc21 [Example 34, (R)-3-(2,6-dichlorophenyl)-7-((4-(3-(hydroxymethyl)-4-methylpiperazin-1-yl)phenyl)amino)-1-methyl-2,3-dihydropyrimido[4,5-d]pyrimidin-4(1H)-one] | 10 to 100 | 15 to 50
CN1CC2CN(c3ccc(Nc4ncc5c(n4)N(C)CN(c4c(Cl)cccc4Cl)C5=O)cc3)CC2C1 (centres unmarked) [Example 35, 3-(2,6-dichlorophenyl)-1-methyl-7-((4-(5-methylhexahydropyrrolo[3,4-c]pyrrol-2(1H)-yl)phenyl)amino)-2,3-dihydropyrimido[4,5-d]pyrimidin-4(1H)-one] | 10 to 100 | 15 to 50
CN1CN(c2c(Cl)cccc2Cl)C(=O)c2cnc(Nc3ccc(N4CC5CNCC5C4)cc3)nc21 (centres unmarked) [Example 36, 3-(2,6-dichlorophenyl)-7-((4-(hexahydropyrrolo [3,4-c]pyrrol-2(1H)-yl)phenyl)amino)-1-methyl-2,3-dihydropyrimido[4,5-d]pyrimidin-4(1H)-one] | 10 to 100 | 15 to 50
CN1CN(c2c(Cl)cccc2Cl)C(=O)c2cnc(Nc3ccc(C4(N)CCC4)cc3)nc21 [Example 37, 7-((4-(1-aminocyclobutyl)phenyl)amino)-3-(2,6-dichlorophenyl)-1-methyl-2,3-dihydropyrimido[4,5-d]pyrimidin-4(1H)-one] | 10 to 100 | 15 to 50
CN1CN(c2c(Cl)cccc2Cl)C(=O)c2cnc(Nc3ccc(N4C[C@@H]5C[C@H]4CN5)cc3)nc21 [Example 39, 7-((4-((1S,4S)-2,5-diazabicyclo[2.2.1]heptan-2-yl)phenyl)amino)-3-(2,6-dichlorophenyl)-1-methyl-2,3-dihydropyrimido[4,5-d]pyrimidin-4(1H)-one] | 10 to 100 | ≤ 15
CN1CN(c2c(Cl)cccc2Cl)C(=O)c2cnc(Nc3ccc(N4CCOCC4)cc3)nc21 [Example 41, 3-(2,6-dichlorophenyl)-1-methyl-7-((4-morpholinophenyl)amino)-2,3-dihydropyrimido[4,5-d]pyrimidin-4(1H)-one] | 10 to 100 | 15 to 50
CN1CN(c2c(Cl)cccc2Cl)C(=O)c2cnc(Nc3ccc(N4CCS(=O)(=O)CC4)cc3)nc21 [Example 42, 3-(2,6-dichlorophenyl)-7-((4-(1,1-dioxidothiomorpholino)phenyl)amino)-1-methyl-2,3-dihydropyrimido[4,5-d]pyrimidin-4(1H)-one] | 10 to 100 | 15 to 50
CN1CN(c2c(Cl)cccc2Cl)C(=O)c2cnc(Nc3ccc(N4CC5COCC(C4)N5)cc3)nc21 [Example 64, 7-((4-(3-oxa-7,9-diazabicyclo[3.3.1]nonan-7-yl)phenyl)amino)-3-(2,6-dichlorophenyl)-1-methyl-2,3-dihydropyrimido[4,5-d]pyrimidin-4(1H)-one] | 10 to 100 | ≤ 15

Further lines, results first:

IC50 (Wee-1 kinase) [nM] | microsomal CLint at 1 μM [1] [µL/min/mg] | SMILES
10 to 100 | ≤ 15 | CN1CN(c2c(Cl)cccc2Cl)C(=O)c2cnc(Nc3ccc(N4C[C@@H]5C[C@H]4CN5C)cc3)nc21 [Example 44, 3-(2,6-dichlorophenyl)-1-methyl-7-((4-((1S,4S)-5-methyl-2,5-diazabicyclo[2.2.1]heptan-2-yl)phenyl)amino)-2,3-dihydropyrimido[4,5-d]pyrimidin-4(1H)-one]
10 to 100 | ≤ 15 | CN1CN(c2c(Cl)cccc2Cl)C(=O)c2cnc(Nc3ccc(N4CCN[C@H](CO)C4)c(F)c3)nc21 [Example 48, (S)-3-(2,6-dichlorophenyl)-7-((3-fluoro-4-(3-(hydroxymethyl)piperazin-1-yl)phenyl)amino)-1-methyl-2,3-dihydropyrimido[4,5-d]pyrimidin-4(1H)-one]
10 to 100 | 15 to 50 | CN1CN(c2c(Cl)cccc2Cl)C(=O)c2cnc(Nc3ccc(N4CCN(C)[C@H](CO)C4)cc3)nc21 [Example 49, (S)-3-(2,6-dichlorophenyl)-7-((4-(3-(hydroxymethyl)-4-methylpiperazin-1-yl)phenyl)amino)-1-methyl-2,3-dihydropyrimido[4,5-d]pyrimidin-4(1H)-one]
≤ 10 | ≤ 15 | C[C@@H]1CN(c2ccc(Nc3ncc4c(n3)N(c3ccn(C)n3)CN(c3c(Cl)cccc3Cl)C4=O)cc2)CCN1 [Example 58, (R)-3-(2,6-dichlorophenyl)-1-(1-methyl-1H-pyrazol-3-yl)-7-((4-(3-methylpiperazin-1-yl)phenyl)amino)-2,3-dihydropyrimido[4,5-d]pyrimidin-4(1H)-one]
10 to 100 | 15 to 50 | COC[C@@H]1CN(c2ccc(Nc3ncc4c(n3)N(C)CN(c3c(Cl)cccc3Cl)C4=O)cc2)CCN1C [Example 66, (S)-3-(2,6-dichlorophenyl)-7-((4-(3-(methoxymethyl)-4-methylpiperazin-1-yl)phenyl)amino)-1-methyl-2,3-dihydropyrimido[4,5-d]pyrimidin-4(1H)-one]
10 to 100 |  | COCc1cc(Nc2ncc3c(n2)N(C)CN(c2c(C)cccc2Cl)C3=O)ccc1N1CCN[C@H](C)C1 [Example 101, (R)-3-(2-chloro-6-methylphenyl)-7-((3-(methoxymethyl)-4-(3-methylpiperazin-1-yl)phenyl)amino)-1-methyl-2,3-dihydropyrimido[4,5-d]pyrimidin-4(1H)-one]
10 to 100 |  | CN1CN(c2ccccc2Cl)C(=O)c2cnc(Nc3ccc(N4CCNC5(CC5)C4)cc3)nc21 [Example 105, 7-((4-(4,7-diazaspiro[2.5]octan-7-yl)phenyl)amino)-3-(2-chlorophenyl)-1-methyl-2,3-dihydropyrimido[4,5-d]pyrimidin-4(1H)-one]
10 to 100 |  | COc1cc(Nc2ncc3c(n2)N(C)CN(c2ccccc2Cl)C3=O)ccc1N1C[C@@H]2C[C@H]1CN2 [Example 107, 7-((4-((1S,4S)-2,5-diazabicyclo[2.2.1]heptan-2-yl)-3-methoxyphenyl)amino)-3-(2-chlorophenyl)-1-methyl-2,3-dihydropyrimido[4,5-d]pyrimidin-4(1H)-one]
10 to 100 |  | C[C@@H]1CN[C@@H](C)CN1c1ccc(Nc2ncc3c(n2)N(C)CN(c2ccccc2Cl)C3=O)cc1F [Example 110, 3-(2-chlorophenyl)-7-((4-((2R,5S)-2,5-dimethylpiperazin-1-yl)-3-fluorophenyl)amino)-1-methyl-2,3-dihydropyrimido[4,5-d]pyrimidin-4(1H)-one]
10 to 100 |  | CC(=O)N1CCN(c2ccc(Nc3ncc4c(n3)N(C)CN(c3c(Cl)cccc3Cl)C4=O)cc2)CC1 [Example 125, 7-((4-(4-acetylpiperazin-1-yl)phenyl)amino)-3-(2,6-dichlorophenyl)-1-methyl-2,3-dihydropyrimido[4,5-d]pyrimidin-4(1H)-one]
≤ 10 |  | COc1cc(Nc2ncc3c(n2)N(C)CN(c2c(Cl)cccc2Cl)C3=O)ccc1C1CCNCC1 [Example 182, 3-(2,6-dichlorophenyl)-7-((3-methoxy-4-(piperidin-4-yl)phenyl)amino)-1-methyl-2,3-dihydropyrimido[4,5-d]pyrimidin-4(1H)-one]
≤ 10 |  | COc1cc(Nc2ncc3c(n2)N(C)CN(c2c(Cl)cccc2Cl)C3=O)ccc1C1CCN(C)CC1 [Example 183, 3-(2,6-dichlorophenyl)-7-((3-methoxy-4-(1-methylpiperidin-4-yl)phenyl)amino)-1-methyl-2,3-dihydropyrimido[4,5-d]pyrimidin-4(1H)-one]
